From PubChem BioAssay AID1259407 (Chemical Carcinogenesis Research Information System (CCRIS), 2018)
Active and inactive are the calls of the source. How the calls were made is not given here.

System: CCRIS mutagenicity, Ames/micronucleus/aberration tests
Experiment: CCRIS mutagenicity studies
[1] = Test System: AMES SALMONELLA TYPHIMURIUM, Strain/Indicator: TA98, Metabolic Activation: NONE, Method: STANDARD PLATE
[2] = Test System: AMES SALMONELLA TYPHIMURIUM, Strain/Indicator: TA98, Metabolic Activation: RAT, LIVER, S-9, AROCLOR 1254, Method: STANDARD PLATE
[3] = Test System: AMES SALMONELLA TYPHIMURIUM, Strain/Indicator: TA100, Metabolic Activation: NONE, Method: STANDARD PLATE
[4] = Test System: AMES SALMONELLA TYPHIMURIUM, Strain/Indicator: TA100, Metabolic Activation: RAT, LIVER, S-9, AROCLOR 1254, Method: STANDARD PLATE
[5] = Test System: AMES SALMONELLA TYPHIMURIUM, Strain/Indicator: TA1535, Metabolic Activation: NONE, Method: STANDARD PLATE
[6] = Test System: AMES SALMONELLA TYPHIMURIUM, Strain/Indicator: TA1535, Metabolic Activation: RAT, LIVER, S-9, AROCLOR 1254, Method: STANDARD PLATE
[7] = Test System: AMES SALMONELLA TYPHIMURIUM, Strain/Indicator: TA1537, Metabolic Activation: NONE, Method: STANDARD PLATE
[8] = Test System: AMES SALMONELLA TYPHIMURIUM, Strain/Indicator: TA1537, Metabolic Activation: RAT, LIVER, S-9, AROCLOR 1254, Method: STANDARD PLATE
[9] = Test System: AMES SALMONELLA TYPHIMURIUM, Strain/Indicator: TA1538, Metabolic Activation: NONE, Method: STANDARD PLATE
[10] = Test System: AMES SALMONELLA TYPHIMURIUM, Strain/Indicator: TA1538, Metabolic Activation: RAT, LIVER, S-9, AROCLOR 1254, Method: STANDARD PLATE
[11] = Test System: AMES SALMONELLA TYPHIMURIUM, Strain/Indicator: TA98, Metabolic Activation: NONE, Method: PREINCUBATION

Measured: mutagenic call

C=CCc1ccc(O)cc1
inactive: Test System: AMES SALMONELLA TYPHIMURIUM, Strain/Indicator: TA98, Metabolic Activation: HAMSTER, LIVER, S-9, AROCLOR 1254, Method: STANDARD PLATE inactive; negative | [1] inactive; negative | [2] inactive; negative | Test System: AMES SALMONELLA TYPHIMURIUM, Strain/Indicator: TA100, Metabolic Activation: HAMSTER, LIVER, S-9, AROCLOR 1254, Method: STANDARD PLATE inactive; negative | [3] inactive; negative | [4] inactive; negative | Test System: AMES SALMONELLA TYPHIMURIUM, Strain/Indicator: TA1535, Metabolic Activation: HAMSTER, LIVER, S-9, AROCLOR 1254, Method: STANDARD PLATE inactive; negative | [5] inactive; negative | [6] inactive; negative | Test System: AMES SALMONELLA TYPHIMURIUM, Strain/Indicator: TA1537, Metabolic Activation: HAMSTER, LIVER, S-9, AROCLOR 1254, Method: STANDARD PLATE inactive; negative | [7] inactive; negative | [8] inactive; negative | Test System: AMES SALMONELLA TYPHIMURIUM, Strain/Indicator: TA1538, Metabolic Activation: HAMSTER, LIVER, S-9, AROCLOR 1254, Method: STANDARD PLATE inactive; negative | [9] inactive; negative | [10] inactive; negative | Test System: MOUSE LYMPHOMA, Strain/Indicator: L5178Y (TK+/TK-), Metabolic Activation: NONE, Method: SUSPENSION/PLATE inactive; negative. reevaluation of results: negative | Test System: MOUSE LYMPHOMA, Strain/Indicator: L5178Y (TK+/TK-), Metabolic Activation: RAT, LIVER, S-9, AROCLOR 1254, Method: SUSPENSION/PLATE inactive; negative. reevaluation of results: negative

CC[C@H](C)[C@H](NC(=O)[C@@H](NC(=O)[C@H](CCC(=O)O)NC(=O)[C@H](CCSC)NC(=O)[C@H](CC(C)C)NC(=O)[C@H](CCCCN)NC(=O)[C@H](CCCNC(=N)N)NC(=O)[C@H](CC(N)=O)NC(=O)[C@H](CO)NC(=O)[C@H](Cc1c[nH]cn1)NC(=O)[C@H](C)NC(=O)[C@H](CCC(N)=O)NC(=O)[C@H](CCC(N)=O)NC(=O)[C@H](C)NC(=O)[C@H](CC(C)C)NC(=O)[C@H](CCC(N)=O)NC(=O)[C@H](CCC(=O)O)NC(=O)[C@H](C)NC(=O)[C@H](CCCNC(=N)N)NC(=O)[C@H](C)NC(=O)[C@H](CCSC)NC(=O)[C@H](CCC(=O)O)NC(=O)[C@H](CC(C)C)NC(=O)[C@@H](NC(=O)[C@H](CCC(=O)O)NC(=O)[C@H](CCCNC(=N)N)NC(=O)[C@H](CC(C)C)NC(=O)[C@H](CC(C)C)NC(=O)[C@H](Cc1c[nH]cn1)NC(=O)[C@H](Cc1ccccc1)NC(=O)[C@@H](NC(=O)[C@H](CC(C)C)NC(=O)[C@H](CC(=O)O)NC(=O)[C@H](CC(C)C)NC(=O)[C@H](CO)NC(=O)[C@@H](NC(=O)[C@@H]1CCCN1C(=O)[C@@H]1CCCN1C(=O)[C@H](CCC(=O)O)NC(=O)[C@H](CCC(=O)O)NC(=O)[C@@H](N)CO)[C@@H](C)CC)[C@@H](C)O)C(C)C)[C@@H](C)CC)C(N)=O
inactive: [11] inactive; negative | Test System: AMES SALMONELLA TYPHIMURIUM, Strain/Indicator: TA98, Metabolic Activation: RAT, LIVER, S-9, PHENOBARBITAL AND 5,6-BENZOFLAVONE, Method: PREINCUBATION inactive; negative | Test System: AMES SALMONELLA TYPHIMURIUM, Strain/Indicator: TA100, Metabolic Activation: NONE, Method: PREINCUBATION inactive; negative | Test System: AMES SALMONELLA TYPHIMURIUM, Strain/Indicator: TA100, Metabolic Activation: RAT, LIVER, S-9, PHENOBARBITAL AND 5,6-BENZOFLAVONE, Method: PREINCUBATION inactive; negative | Test System: AMES SALMONELLA TYPHIMURIUM, Strain/Indicator: TA1535, Metabolic Activation: NONE, Method: PREINCUBATION inactive; negative | Test System: AMES SALMONELLA TYPHIMURIUM, Strain/Indicator: TA1535, Metabolic Activation: RAT, LIVER, S-9, PHENOBARBITAL AND 5,6-BENZOFLAVONE, Method: PREINCUBATION inactive; negative | Test System: AMES SALMONELLA TYPHIMURIUM, Strain/Indicator: TA1537, Metabolic Activation: NONE, Method: PREINCUBATION inactive; negative | Test System: AMES SALMONELLA TYPHIMURIUM, Strain/Indicator: TA1537, Metabolic Activation: RAT, LIVER, S-9, PHENOBARBITAL AND 5,6-BENZOFLAVONE, Method: PREINCUBATION inactive; negative | Test System: E. COLI, Strain/Indicator: WP2 UVRA, Metabolic Activation: NONE, Method: PREINCUBATION inactive; negative | Test System: E. COLI, Strain/Indicator: WP2 UVRA, Metabolic Activation: RAT, LIVER, S-9, PHENOBARBITAL AND 5,6-BENZOFLAVONE, Method: PREINCUBATION inactive; negative

N/C(=N\O)c1ccccc1
inactive: Test System: AMES SALMONELLA TYPHIMURIUM, Strain/Indicator: TA98, Metabolic Activation: CO631 CELLS, Method: PREINCUBATION inactive; negative | [11] inactive; negative | Test System: AMES SALMONELLA TYPHIMURIUM, Strain/Indicator: TA98, Metabolic Activation: RAT HEPATOCYTES, Method: PREINCUBATION inactive; negative | Test System: AMES SALMONELLA TYPHIMURIUM, Strain/Indicator: TA98, Metabolic Activation: RAT, LIVER, S-9, AROCLOR 1254, ATP, Method: PREINCUBATION inactive; negative | Test System: AMES SALMONELLA TYPHIMURIUM, Strain/Indicator: TA98, Metabolic Activation: RAT, LIVER, S-9, AROCLOR 1254, Method: PREINCUBATION inactive; negative | Test System: AMES SALMONELLA TYPHIMURIUM, Strain/Indicator: TA100, Metabolic Activation: RABBIT, LIVER, S-9, Method: PREINCUBATION inactive; negative | Test System: AMES SALMONELLA TYPHIMURIUM, Strain/Indicator: TA100, Metabolic Activation: RAT HEPATOCYTES, Method: PREINCUBATION inactive; negative | Test System: AMES SALMONELLA TYPHIMURIUM, Strain/Indicator: TA100, Metabolic Activation: RAT, LIVER, S-9, AROCLOR 1254, ATP, Method: PREINCUBATION inactive; negative | Test System: AMES SALMONELLA TYPHIMURIUM, Strain/Indicator: TA100, Metabolic Activation: RAT, LIVER, S-9, AROCLOR 1254, Method: PREINCUBATION inactive; negative
active: Test System: AMES SALMONELLA TYPHIMURIUM, Strain/Indicator: TA98, Metabolic Activation: RABBIT, LIVER, S-9, Method: PREINCUBATION active; positive

O=[N+]([O-])c1ccc(OC[C@H]2CO2)cc1
active: [3] active; positive

COC(=O)c1ccc(O)cc1
inactive: [1] inactive; negative | [2] inactive; negative | [3] inactive; negative | [4] inactive; negative | [5] inactive; negative | [6] inactive; negative | [7] inactive; negative | [8] inactive; negative | [9] inactive; negative | [10] inactive; negative | Test System: E. COLI, Strain/Indicator: WP2, Metabolic Activation: NONE, Method: STANDARD PLATE inactive; negative | Test System: E. COLI, Strain/Indicator: WP2, Metabolic Activation: RAT, LIVER, S-9, AROCLOR 1254, Method: STANDARD PLATE inactive; negative
